Test results as given in patent US20250353891A1 (MEDIMMUNE LIMITED, priority 2022, published 2025).
Starred links: 1 amine or outer side, 2 acyl side, 3 side chain; linkers in the order of their positions; H or OH if unused. Non-standard residues stand in square brackets, D forms with d. Residues, ends and D or L forms follow the SMILES beside them. Groups on a side chain read outwards from the residue. *: point of attachment. C20 diacid = O=C(O)CCCCCCCCCCCCCCCCCCC(=O)*; C18 diacid = O=C(O)CCCCCCCCCCCCCCCCC(=O)*; γGlu = O=C(O)[C@H](CCC(=O)[*:2])N[*:1]; αMeF = C[C@](N)(Cc1ccccc1)C(=O)O; AEEA = NCCOCCOCC(=O)O; Aib = CC(C)(N)C(=O)O

Experiments:
[1] = target: human GLP-1 receptor (hGLP-1R) (Homo sapiens, UniProt P43220); assay: cAMP production (HTRF) in CHO cells expressing hGLP-1R; assay type: cell-based; design: expressed in transfected cells; conditions: for EC50: Table 7, peptides modified at position 20, cAMP in CHO hGLP-1R cells, geometric mean, read-out: hGLP-1R EC50; for % Relative Potency Ratio: Table 7, % GLP-1R activity relative to GLP-1 / % GlucR activity relative to glucagon
Chain of human GLP-1 receptor (hGLP-1R) (P43220 24-463): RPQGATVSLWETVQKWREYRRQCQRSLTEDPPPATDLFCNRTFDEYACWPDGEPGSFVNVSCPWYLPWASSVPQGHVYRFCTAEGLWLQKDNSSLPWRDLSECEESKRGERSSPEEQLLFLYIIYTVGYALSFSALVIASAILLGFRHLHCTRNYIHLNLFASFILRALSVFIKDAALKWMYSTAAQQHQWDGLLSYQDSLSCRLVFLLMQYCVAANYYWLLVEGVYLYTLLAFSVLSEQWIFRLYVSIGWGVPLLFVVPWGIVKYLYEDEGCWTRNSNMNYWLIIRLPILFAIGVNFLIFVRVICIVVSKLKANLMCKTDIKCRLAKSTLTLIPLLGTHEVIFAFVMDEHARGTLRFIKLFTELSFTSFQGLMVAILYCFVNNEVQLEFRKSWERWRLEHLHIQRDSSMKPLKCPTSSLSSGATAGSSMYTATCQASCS
Procedure, shortened: (§1)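 Cells were resuspended in assay buffer at batch-optimized density, typically 1×10^5 cells/mL for hGLP-1R and 2×10^5 cells/mL for hGCGR. After 30 min incubation at room temperature with compound, cAMP was measured by two-step HTRF. EC50 values came from 4-parameter logistic fits of % Delta F.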

[2] = target: human glucagon receptor (hGCGR) (Homo sapiens, UniProt P47871); assay: cAMP production (HTRF) in CHO cells expressing hGCGR; assay type: cell-based; design: expressed in transfected cells; conditions: Table 7, peptides modified at position 20; cAMP in CHO hGCGR cells; geometric mean; read-out: hGluc-R EC50
Chain of human glucagon receptor (hGCGR) (P47871 26-477): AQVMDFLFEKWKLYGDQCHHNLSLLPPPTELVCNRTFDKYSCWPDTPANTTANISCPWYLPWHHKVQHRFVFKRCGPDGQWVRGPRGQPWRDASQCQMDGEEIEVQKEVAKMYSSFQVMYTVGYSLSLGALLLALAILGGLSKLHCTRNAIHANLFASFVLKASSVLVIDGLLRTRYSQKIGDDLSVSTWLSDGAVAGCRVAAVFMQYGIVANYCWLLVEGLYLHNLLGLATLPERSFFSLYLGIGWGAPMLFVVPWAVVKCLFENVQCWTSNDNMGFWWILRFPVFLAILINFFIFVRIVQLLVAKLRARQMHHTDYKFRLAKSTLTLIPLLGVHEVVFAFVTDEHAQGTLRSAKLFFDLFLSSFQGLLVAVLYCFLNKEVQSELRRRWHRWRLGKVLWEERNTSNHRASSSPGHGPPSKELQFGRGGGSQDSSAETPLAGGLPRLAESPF
Procedure, shortened: as §1

| Structure (SMILES) | EC50 [1] [pM] | % Relative Potency Ratio [1] | EC50 [2] [pM] |
| --- | --- | --- | --- |
| CC[C@H](C)[C@H](NC(=O)[C@H](Cc1c[nH]c2ccccc12)NC(=O)[C@H](CCC(N)=O)NC(=O)[C@@H](NC(=O)[C@H](Cc1ccccc1)NC(=O)[C@H](CC(=O)O)NC(=O)[C@H](CCCCNC(=O)COCCOCCNC(=O)COCCOCCNC(=O)CC[C@H](NC(=O)CC[C@H](NC(=O)CCCCCCCCCCCCCCCCCCC(=O)O)C(=O)O)C(=O)O)NC(=O)[C@H](C)NC(=O)C(C)(C)NC(=O)[C@H](CCCNC(=N)N)NC(=O)[C@H](CO)NC(=O)[C@H](CC(=O)O)NC(=O)[C@H](CC(C)C)NC(=O)[C@](C)(Cc1ccccc1)NC(=O)[C@H](CCCCN)NC(=O)[C@H](CO)NC(=O)[C@@H](NC(=O)[C@H](CC(=O)O)NC(=O)[C@H](CO)NC(=O)[C@@H](NC(=O)[C@](C)(Cc1ccccc1)NC(=O)[C@H](CO)NC(=O)CNC(=O)[C@H](Cc1c[nH]cn1)NC(=O)C(C)(C)NC(=O)[C@@H](N)Cc1c[nH]cn1)[C@@H](C)O)C(C)C)C(C)C)C(=O)N[C@@H](C)C(=O)N[C@@H](CC(N)=O)C(=O)N[C@H](C(N)=O)[C@@H](C)O [Peptide 217] (H-H[Aib]HGS[αMeF]TSDVSK[αMeF]LDSR[Aib]AK([AEEA-AEEA-γGlu-γGlu-C20 diacid])DFVQWIANT-NH2) | 264 | 0.9 | 127 |
| CC[C@H](C)[C@H](NC(=O)[C@H](Cc1c[nH]c2ccccc12)NC(=O)[C@H](CCC(N)=O)NC(=O)[C@@H](NC(=O)[C@H](Cc1ccccc1)NC(=O)[C@H](CC(=O)O)NC(=O)[C@H](CCCCNC(=O)COCCOCCNC(=O)COCCOCCNC(=O)CC[C@H](NC(=O)CC[C@H](NC(=O)CCCCCCCCCCCCCCCCCCC(=O)O)C(=O)O)C(=O)O)NC(=O)[C@H](C)NC(=O)[C@H](C)NC(=O)[C@H](CCCNC(=N)N)NC(=O)[C@H](CO)NC(=O)[C@H](CC(=O)O)NC(=O)[C@H](CC(C)C)NC(=O)[C@](C)(Cc1ccccc1)NC(=O)[C@H](CCCCN)NC(=O)[C@H](CO)NC(=O)[C@@H](NC(=O)[C@H](CC(=O)O)NC(=O)[C@H](CO)NC(=O)[C@@H](NC(=O)[C@](C)(Cc1ccccc1)NC(=O)[C@H](CO)NC(=O)CNC(=O)[C@H](Cc1c[nH]cn1)NC(=O)C(C)(C)NC(=O)[C@@H](N)Cc1c[nH]cn1)[C@@H](C)O)C(C)C)C(C)C)C(=O)N[C@@H](C)C(=O)N[C@@H](CC(N)=O)C(=O)N[C@H](C(=O)NCC(N)=O)[C@@H](C)O [Peptide 218] (H-H[Aib]HGS[αMeF]TSDVSK[αMeF]LDSRAAK([AEEA-AEEA-γGlu-γGlu-C20 diacid])DFVQWIANTG-NH2) | 139 | 6.0 | 423 |
| CC[C@H](C)[C@H](NC(=O)[C@H](Cc1c[nH]c2ccccc12)NC(=O)[C@H](CCC(N)=O)NC(=O)[C@@H](NC(=O)[C@H](Cc1ccccc1)NC(=O)[C@H](CC(=O)O)NC(=O)[C@H](CCCCNC(=O)COCCOCCNC(=O)COCCOCCNC(=O)CC[C@H](NC(=O)CC[C@H](NC(=O)CCCCCCCCCCCCCCCCCCC(=O)O)C(=O)O)C(=O)O)NC(=O)[C@H](C)NC(=O)[C@H](C)NC(=O)[C@H](CCCNC(=N)N)NC(=O)[C@H](CO)NC(=O)[C@H](CC(=O)O)NC(=O)[C@H](CC(C)C)NC(=O)[C@](C)(Cc1ccccc1)NC(=O)[C@H](CCCCN)NC(=O)[C@H](CO)NC(=O)[C@@H](NC(=O)[C@H](CC(=O)O)NC(=O)[C@H](CO)NC(=O)[C@@H](NC(=O)[C@](C)(Cc1ccccc1)NC(=O)[C@H](CO)NC(=O)CNC(=O)[C@H](Cc1c[nH]cn1)NC(=O)C(C)(C)NC(=O)[C@@H](N)Cc1c[nH]cn1)[C@@H](C)O)C(C)C)C(C)C)C(=O)N[C@@H](C)C(=O)N[C@@H](CC(N)=O)C(=O)N[C@H](C(=O)NCC(=O)NCC(N)=O)[C@@H](C)O [Peptide 219] (H-H[Aib]HGS[αMeF]TSDVSK[αMeF]LDSRAAK([AEEA-AEEA-γGlu-γGlu-C20 diacid])DFVQWIANTGG-NH2; N-terminus assumed) | 94.5 | 6.2 | 298 |
| CC[C@H](C)[C@H](NC(=O)C(C)(C)NC(=O)[C@H](CCC(N)=O)NC(=O)[C@@H](NC(=O)[C@H](Cc1ccccc1)NC(=O)[C@H](CC(=O)O)NC(=O)[C@H](CCCCNC(=O)COCCOCCNC(=O)COCCOCCNC(=O)CC[C@H](NC(=O)CC[C@H](NC(=O)CCCCCCCCCCCCCCCCCCC(=O)O)C(=O)O)C(=O)O)NC(=O)[C@H](C)NC(=O)C(C)(C)NC(=O)[C@H](CCCNC(=N)N)NC(=O)[C@H](CO)NC(=O)[C@H](CC(=O)O)NC(=O)[C@H](CC(C)C)NC(=O)[C@](C)(Cc1ccccc1)NC(=O)[C@H](CCCCN)NC(=O)[C@H](CO)NC(=O)[C@@H](NC(=O)[C@H](CC(=O)O)NC(=O)[C@H](CO)NC(=O)[C@@H](NC(=O)[C@](C)(Cc1ccccc1)NC(=O)[C@H](CO)NC(=O)CNC(=O)[C@H](Cc1c[nH]cn1)NC(=O)C(C)(C)NC(=O)[C@@H](N)Cc1c[nH]cn1)[C@@H](C)O)C(C)C)C(C)C)C(=O)N[C@@H](C)C(=O)N[C@@H](CC(N)=O)C(=O)N[C@H](C(N)=O)[C@@H](C)O [Peptide 220] (H-H[Aib]HGS[αMeF]TSDVSK[αMeF]LDSR[Aib]AK([AEEA-AEEA-γGlu-γGlu-C20 diacid])DFVQ[Aib]IANT-NH2) | 240 | 3.3 | 405 |
| CC[C@H](C)[C@H](NC(=O)C(C)(C)NC(=O)[C@H](CCC(N)=O)NC(=O)[C@@H](NC(=O)[C@H](Cc1ccccc1)NC(=O)[C@H](CC(=O)O)NC(=O)[C@H](CCCCNC(=O)COCCOCCNC(=O)COCCOCCNC(=O)CC[C@H](NC(=O)CC[C@H](NC(=O)CCCCCCCCCCCCCCCCCCC(=O)O)C(=O)O)C(=O)O)NC(=O)[C@H](C)NC(=O)[C@H](C)NC(=O)[C@H](CCCNC(=N)N)NC(=O)[C@H](CO)NC(=O)[C@H](CC(=O)O)NC(=O)[C@H](CC(C)C)NC(=O)[C@](C)(Cc1ccccc1)NC(=O)[C@H](CCCCN)NC(=O)[C@H](CO)NC(=O)[C@@H](NC(=O)[C@H](CC(=O)O)NC(=O)[C@H](CO)NC(=O)[C@@H](NC(=O)[C@](C)(Cc1ccccc1)NC(=O)[C@H](CO)NC(=O)CNC(=O)[C@H](Cc1c[nH]cn1)NC(=O)C(C)(C)NC(=O)[C@@H](N)Cc1c[nH]cn1)[C@@H](C)O)C(C)C)C(C)C)C(=O)N[C@@H](C)C(=O)N[C@@H](CC(N)=O)C(=O)N[C@H](C(N)=O)[C@@H](C)O [Peptide 221] (H-H[Aib]HGS[αMeF]TSDVSK[αMeF]LDSRAAK([AEEA-AEEA-γGlu-γGlu-C20 diacid])DFVQ[Aib]IANT-NH2; N-terminus assumed) | 122 | 2.0 | 123 |
| CC[C@H](C)[C@H](NC(=O)[C@H](CO)NC(=O)[C@H](CCC(N)=O)NC(=O)[C@@H](NC(=O)[C@H](Cc1ccccc1)NC(=O)[C@H](CC(=O)O)NC(=O)[C@H](CCCCNC(=O)COCCOCCNC(=O)COCCOCCNC(=O)CC[C@H](NC(=O)CCCCCCCCCCCCCCCCC(=O)O)C(=O)O)NC(=O)[C@H](C)NC(=O)[C@H](C)NC(=O)[C@H](CCC(N)=O)NC(=O)[C@H](CO)NC(=O)[C@H](CC(=O)O)NC(=O)[C@H](CC(C)C)NC(=O)[C@](C)(Cc1ccccc1)NC(=O)[C@H](CCCCN)NC(=O)[C@H](CO)NC(=O)[C@@H](NC(=O)[C@H](CC(=O)O)NC(=O)[C@H](CO)NC(=O)[C@@H](NC(=O)[C@](C)(Cc1ccccc1)NC(=O)[C@H](CO)NC(=O)CNC(=O)[C@H](Cc1c[nH]cn1)NC(=O)C(C)(C)NC(=O)[C@@H](N)Cc1c[nH]cn1)[C@@H](C)O)C(C)C)C(C)C)C(=O)N[C@@H](C)C(=O)N[C@@H](CC(N)=O)C(=O)N[C@H](C(N)=O)[C@@H](C)O [Peptide 222] (H-H[Aib]HGS[αMeF]TSDVSK[αMeF]LDSQAAK([AEEA-AEEA-γGlu-C18 diacid])DFVQSIANT-NH2) | 151 | 3.2 | 244 |
